# USRE35706E, “Lipophila derivatives of muramylpeptides having properties of activating macrophages and compositions containing them” (priority 1984, dated 1997)
# Several values for one entry are separate records, joined by “and”; a condition that tells them apart may be missing. Equal entries are not always repeated.
# Legend:
# Klebsiella pneumoniae = experiment: Anti-infectious activity in mice infected with Klebsiella pneumoniae; assay type: in vivo; settings: for protective activity against lethal Klebsiella pneumoniae infection in the mouse (in words): summary of observations
# [1] = Retention of the muramylpeptide in liposomes suspended in MEM-FCS medium; assay type: physicochemical; settings: liposomes in MEM-FCS medium at 37° C.
# Procedure: Liposomes produced under the same conditions, but with muramylpeptides labeled with tritium have enabled the following observations. […] The incorporation of the MDP-GDP and the stability of the latter, has also been verified in reaction tests with anti-MDP monoclonal antibodies. After incubation of these liposomes in the same medium at 37° C. for 72 hours, there is observed a constant agglutination of the liposomes with the antibody (95% of the liposome being agglutinated), this observation bearing witness to the practical absence of any loss of MDP-GDP. […] The leakage, if it was produced, would have been manifested by a decrease in the intensity of agglutination with time.
# Candida albicans = experiment: Protective action in mice infected with Candida albicans; assay type: in vivo
# [2] = Pyrogenicity measurements on rabbits (European Pharmacopoea); assay type: in vivo, rabbit; settings: 1 mg/kg; groups of three rabbits, one value per animal; listed as 6 -0-GDP-MDPG-OnBu
# Text: Certain of the compounds according to the invention show at relatively high doses, a certain pyrogenicity, whose impact is however reduced, taking into account the particularly higher therapeutic index from which they appear to benefit. This being the case, the muramylpeptides in which the group of modification by the two lipophile chains is fixed to the 6 position of the saccharide group, and of which the peptide chain is terminated by a glutamy-alpha-ester-gamma-amide group, are particularly advantageous by reason of their more reduced pyrogenicity. Testimony thereof is borne by comparative pyrogenicity measurements carried out on groups of three rabits with the two compounds more particularly studied, according to the procedure of the European Pharmacopoea, Vol. 2, 1971, pages 58-60. In fact, the following results are obtained, expressed by temperature observations observed in experimental animals to which had previously been administered 1 mg/kg of the compounds studied: for the MDP-GDP : 1°;0.9° and 1° C.; for the 6 -0-GDP-MDPG-OnBu : 0.2°; 0.3° and 0.5° C.
# bovine serumal-bumin = experiment: Adjuvant activity in the Swiss female mouse (passive hemagglutination titer); assay type: in vivo; settings: for Primary response 1.21: 100 micrograms with 500 micrograms bovine serum albumin at day 0, serums titrated in pools at day 21; for Secondary response 1.36: booster of 100 micrograms antigen alone at day 30, serums titrated separately at day 36
# Procedure: At day 0, 100 micrograms of C474 were injected with 500 micrograms of bovine serumal-bumin. At day 30, the animals received a booster of 100 micrograms of antigen alone. The following results were obtained:
# The titers are expressed in Log 2 of the passive hemagglutination titer. At day 21, the serums were titrated in pools; at day 36, they were titrated separately.
# [3] = Table X, 100 μg i.v. at day -1 (dose not given for MDP-L-Ala-GDP), 10^4 K. pneumoniae
# [4] = Table XI, 100 μg/day/4 days i.v. (days -4, -3, -2 and -1), 2 × 10^6 Candida albicans
compound,measurement,setting,value
"6-O-(beta, gamma-dipalmitoyl-L-glycerol)-capryl-N-acetyl-muramyl-L-alanyl-D-glutamine -n-butyl ester [6-0-GDP-aminocaproyl-MDPG-OnBu]",Protection (%),Klebsiella pneumoniae; [3],56%
same,Survival (15 d),Klebsiella pneumoniae; [3],9/16
same,retention of the muramylpeptide in the liposomes (in words),[1],Quite similar observations
"C[C@@H]1[C@H](O)[C@@H](C)/C=C/C=C/C=C/C=C/C=C/C=C/C=C/[C@H](O[C@@H]2O[C@H](C)[C@@H](O)[C@H](N)[C@@H]2O)C[C@@H]2O[C@](O)(C[C@@H](O)C[C@@H](O)[C@H](O)CC[C@@H](O)C[C@@H](O)CC(=O)O[C@H]1C)C[C@H](O)[C@H]2C(=O)O [Amphotericin B, reference compound]",Survival (10 d),"Candida albicans; Table XI, Amphotericin B 3 μg subcutaneously on the day of infection, 2 × 10^6 Candida albicans i.v.",2/16
"CCCCCCCCCCCCCCCC(=O)OCC(COC(=O)[C@H](C)NC(=O)CC[C@@H](NC(=O)[C@@H](C)NC(=O)[C@@H](C)O[C@H]1[C@H](O)[C@@H](CO)OC(O)[C@@H]1NC(C)=O)C(N)=O)OC(=O)CCCCCCCCCCCCCCC (stereo partly drawn) [MDP(D,D)-L-Ala-GDP, alpha (N-acetyl-muramyl-D-alanyl-D-isoglutaminyl-L-alanine) beta, gamma-dipalmitoyl-sn-glycerol]",Protection (%),Klebsiella pneumoniae; [3],25%
same,protective activity against lethal Klebsiella pneumoniae infection in the mouse (in words),Klebsiella pneumoniae,"although active, is less so than MDP-L-Ala-GDP"
same,retention of the muramylpeptide in the liposomes (in words),[1],Quite similar observations
"alpha (N-acetyl-muramyl-D-alanyl-D-isoglutamine), beta, gamma-dipalmitoyl-sn-glycerol [MDP (D-D) - GDP]",protective activity against lethal Klebsiella pneumoniae infection in the mouse (in words),Klebsiella pneumoniae,protective activity comparable
same,Survival (10 d),Candida albicans; [4],0/16
same,retention of the muramylpeptide in the liposomes (in words),[1],Quite similar observations
Gentamicin [reference compound],Protection (%),"Klebsiella pneumoniae; Table IX, Gentamicin 10 μg subcutaneously 2 hours after infection, 5 × 10^4 K. pneumoniae",21%
"6-O-(beta, gamma-dipalmitoyl-L-glyceryl)-N-acetyl-muramyl-L-alanyl-D-glutamine-n-buty l-ester [6-O-GDP-MDPG-OnBu]","pyrogenicity, temperature observations in experimental animals",[2],0.2 °C and 0.3 °C and 0.5 °C
same,Primary response 1.21,bovine serumal-bumin,2.64 Log 2 of the passive hemagglut
same,Secondary response 1.36,bovine serumal-bumin,8.6 Log 2 of the passive hemagglut
same,Protection (%),"Klebsiella pneumoniae; Table VII, aqueous suspension, 100 μg i.v. at day -1, 10^4 K. pneumoniae",68.7%
same,Survival (15 d),"Klebsiella pneumoniae; Table VII, aqueous suspension, 100 μg i.v. at day -1, mice infected i.v. with 10^4 K. pneumoniae",22/32
same,protective activity against lethal Klebsiella pneumoniae infection in the mouse (in words),Klebsiella pneumoniae,protective activity comparable
same,retention of the muramylpeptide in the liposomes (in words),[1],Quite similar observations
"CCCCCCCCCCCCCCCC(=O)OC[C@@H](COC(=O)CC[C@@H](NC(=O)[C@H](C)NC(=O)[C@@H](C)O[C@H]1[C@H](O)[C@@H](CO)OC(O)[C@@H]1NC(C)=O)C(N)=O)OC(=O)CCCCCCCCCCCCCCC (stereo partly drawn) [MDP-GDP, alpha (N-acetyl-muramyl-L-alanyl-D-isoglutamine), beta, gamma-dipalmitoyl-sn-glycerol]",Primary response 1.21,bovine serumal-bumin,3.64 Log 2 of the passive hemagglut
same,Secondary response 1.36,bovine serumal-bumin,10.27 Log 2 of the passive hemagglut
same,Protection (%),"Klebsiella pneumoniae; Table IX, 30 μg intravenously 24 hours before infection, 5 × 10^4 K. pneumoniae",16%
same,protective activity when injected in liposomes (in words),"Klebsiella pneumoniae; in liposomes, at 0.1 microgram",the most active
same,protective activity against lethal Klebsiella pneumoniae infection in the mouse (in words),Klebsiella pneumoniae,protective activity comparable
same,Protection,"Candida albicans; Table XI, 100 μg/day/4 days i.v.",19
same,Survival (10 d),Candida albicans; [4],2/16
same,Protection,"Candida albicans; Table XII, aqueous suspension 100 μg × 4",75%
same,Survival (10 d),"Candida albicans; Table XII, aqueous suspension 100 μg × 4 (days -4, -3, -2, -1), 10^6 Candida albicans",6/8
"CCCCCCCCCCCCCCCC(=O)OCC(COC(=O)[C@H](C)NC(=O)CC[C@@H](NC(=O)[C@H](C)NC(=O)[C@@H](C)O[C@H]1[C@H](O)[C@@H](CO)OC(O)[C@@H]1NC(C)=O)C(N)=O)OC(=O)CCCCCCCCCCCCCCC (stereo partly drawn) [MDP-L-Ala-GDP, alpha (N-acetyl-muramyl-L-alanyl-D-isoglutaminyl-L-alanine), beta, gamma-dipalmitoyl-sn-glycerol]",Protection (%),Klebsiella pneumoniae; [3],63%
same,retention of the muramylpeptide in the liposomes (in words),[1],Quite similar observations
